Results on three compounds are retold here after patent US20240082212A1, “USE OF MDMA FOR TREATMENT OF STRESS-RELATED DISORDERS” (priority 2022, published 2024).

The target in one series is Serotonin 5-HT2A (Homo sapiens, UniProt P28223). The series can be described thus: Eurofins Panlabs radioligand binding panel, serotonin 5-HT2A.
The next series deals with C57BL/6 mice. The series can be described thus: Mouse extinction of conditioned fear assay. Type of series: in vivo. The procedure: Racemic MDMA and R(−)-MDMA were evaluated for extinction of fear memory. The study utilized a mouse extinction of conditioned fear assay. A conditioned fear response is induced by pairing a previously neutral stimulus (conditioned stimulus; CS, such as an auditory tone) and aversive stimulus (unconditioned stimulus; US, such as […]). The fear response is later extinguished with repeated re-exposure to the CS in the absence of the US. This is a useful model for understanding learning and memory processes required for long-term recovery from PTSD, because it resembles exposure-based therapy, wherein repeated exposure to a fear-eliciting stimulus or memory promotes a reduced fear response to future reminders of the trauma. […] The current experiment investigated the ability of varying doses of R(−)-MDMA to facilitate extinction of conditioned fear in mice.
Standard rodent chow and water was available ad libitum.
The animal procedures were conducted according to established protocols approved by the IACUC committee and Melior Discovery Inc. Standard Operation Procedures (SOP). The behavioral procedure was adapted from Young et al., Transl Psychiatry 5, e634 (2015) with slight modifications. Mice were handled for two consecutive days for four minutes each day and injected with drug vehicles prior to the experiment. […] Fear conditioning was conducted in individual automated chambers built by Kinder Scientific (Poway, CA) that detect movement with infrared beams. On Day 1, Conditioning, each animal was placed in a chamber and presented a training session (Context A). An almond scent was present under the grid floor during the entire session. The training procedure consisted of a 2-minute habituation followed by a 30-second, 80 dB tone (CS). During the last 2 seconds of the tone, the animal received a 1 mA foot shock (US). This US-CS procedure occurred once for a total of one paired presentation of tone and shock. Freezing behavior (immobility) was recorded in 5-second intervals during the session. Percent baseline freezing behavior was determined in the 2-minute habituation period. After the session, animals were returned to their cages in the holding room. Animals were not manipulated on Day 2. On Day 3, Extinction Training, two days (48 hours) following fear conditioning, each animal was placed in Context B, in which the tactile and odor cues of the conditioning chambers were altered with a different (lemon) scent and black Plexiglas floor placed over the grid floor. Following a 2-minute acclimation period, the animal received four 30-second presentations of the CS (tone) in the absence of the US (foot shock), with a 45-second interval between presentations and 30 seconds of chamber consolidation. Immobility was recorded in 5-second intervals to measure baseline freezing response to the altered context, and freezing response to each tone/cue presentation. On Day 3, each animal was administered vehicle or racemic MDMA by intraperitoneal (IP) injection at 30 minutes prior, to the extinction training session. On Days 4, 8, and 13, Extinction Testing sessions, each animal was placed in Context B. Following a 2-minute acclimation period, each animal received four 30-second presentations of the CS (tone) in the absence of the US (foot shock), with a 45-second interval between presentations and 30 seconds of chamber consolidation. Immobility was recorded in 5-second intervals to measure baseline freezing response to the altered context, and freezing response to each tone/cue presentation.
Each animal in each treatment group received IP administration of vehicle or R(−)-MDMA or racemic MDMA at 30 minutes prior to extinction training on day 3. […] Injection volumes were 10 mL/kg. The study was run in 2 cohorts. Data were presented as mean±standard error of the mean of the percentage (%) of the session time spent freezing (absence of movement other than respiration) or activity counts during the 2-minute acclimation period.

The next series has as its target T1, Adrenergic α2A (Homo sapiens, UniProt P08913).
T1 sequence (P08913 1-465): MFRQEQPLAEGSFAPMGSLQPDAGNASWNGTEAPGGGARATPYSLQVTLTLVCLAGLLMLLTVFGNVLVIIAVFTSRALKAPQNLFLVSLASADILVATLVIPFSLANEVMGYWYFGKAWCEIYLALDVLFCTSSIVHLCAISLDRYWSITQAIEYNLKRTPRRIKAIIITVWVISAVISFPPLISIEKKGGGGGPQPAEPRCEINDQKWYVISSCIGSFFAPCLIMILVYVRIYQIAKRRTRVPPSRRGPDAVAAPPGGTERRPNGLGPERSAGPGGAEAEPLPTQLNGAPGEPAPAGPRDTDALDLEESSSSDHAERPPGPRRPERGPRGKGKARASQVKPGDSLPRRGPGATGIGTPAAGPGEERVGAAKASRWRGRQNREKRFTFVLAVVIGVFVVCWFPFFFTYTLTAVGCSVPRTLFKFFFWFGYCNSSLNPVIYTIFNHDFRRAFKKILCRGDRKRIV
The series can be described thus: Eurofins Panlabs radioligand binding panel, adrenergic α2A. The following applies: 10 uM. The procedure:
Each of the compounds was evaluated for binding to 87 different targets as part of a panel (Eurofins Panlabs, Taiwan, China). Each compound was tested at a single concentration of […]. The panel included mostly G-protein-couple receptors, ion channels, enzymes, transporters and nuclear receptors, expressed in the central nervous system, cardiovascular, respiratory, gastrointestinal and renal systems. A limited number of targets were of pig, rat or guinea pig origin. Targets were expressed in human recombinant cells lines, rat brain or spinal cord, guinea pig brain or pig heart. Methods were adapted from the scientific literature to maximize reliability and reproducibility. Reference standards were run as an integral part of each assay to ensure validity of the results obtained (available online at the eurofins website for the safety screen 87 panel).

Another series deals with rats. Conditions: 4 hourly SC injections at 10 mg/kg/injection (Biezonski et al., 2013); cited from earlier work.
For series [1] the following is noted: rats; 1 week after 4 hourly SC injections at 10 mg/kg/injection (Biezonski et al., 2013); cited from earlier work.
The next series has as its system PTSD participants. Conditions: cited from earlier work.
Where [2] appears, read: Days 8 and 13, single R-MDMA 30 mg/kg IP on Day 3.
Setting [3] is: Day 3, racemic MDMA 7.8 mg/kg IP.
The mark [4] stands for this setting: Day 4, racemic MDMA 7.8 mg/kg IP.
Setting [5] is: Days 8 and 13, single racemic MDMA 7.8 mg/kg IP on Day 3.

Serotonin 5-HT2A, sequence (P28223 whole entry): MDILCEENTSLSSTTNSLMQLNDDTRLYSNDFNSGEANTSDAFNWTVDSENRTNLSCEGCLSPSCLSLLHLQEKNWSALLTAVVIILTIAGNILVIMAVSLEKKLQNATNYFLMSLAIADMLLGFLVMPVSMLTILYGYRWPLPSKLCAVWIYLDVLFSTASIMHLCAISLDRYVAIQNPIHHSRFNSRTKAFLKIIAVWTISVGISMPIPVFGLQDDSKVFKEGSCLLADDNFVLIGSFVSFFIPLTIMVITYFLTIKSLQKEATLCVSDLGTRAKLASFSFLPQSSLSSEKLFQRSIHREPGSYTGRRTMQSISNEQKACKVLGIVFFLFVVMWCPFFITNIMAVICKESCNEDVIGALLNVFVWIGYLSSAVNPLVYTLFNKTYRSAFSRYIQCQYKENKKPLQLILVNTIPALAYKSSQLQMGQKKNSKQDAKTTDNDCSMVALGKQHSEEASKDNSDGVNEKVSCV

`CNC(C)Cc1ccc2c(c1)OCO2` (single isomer, unassigned) [R-MDMA, R(−)-3,4-methylenedioxymethamphetamine]: on Serotonin 5-HT2A, the IC50 (usually the concentration that gives 50% inhibition) came out at 9.91 µM. Besides, on Serotonin 5-HT2A, the Ki (in general, a measure of affinity in units of concentration, obtained from inhibition or displacement) was 2.83 µM. In addition, the freezing vs vehicle result in the series on C57BL/6 mice (Day 3 (extinction training, single IP dose 30 min prior), R-MDMA 17 and 30 mg/kg) is “reduced freezing”; in the series on C57BL/6 mice (Day 3, R-MDMA 10 mg/kg IP), “no significant effect on freezing”; in the series on C57BL/6 mice (Day 4 (day after single dose), R-MDMA 10, 17 and 30 mg/kg IP) it was “significantly reduced freezing”; with C57BL/6 mice (setting [2]), “significantly reduced freezing”. The “activity counts vs vehicle” value in the series with C57BL/6 mice (Day 3, all doses of R-MDMA (10, 17, 30 mg/kg IP)) is given as “Significantly increased activity counts”; with C57BL/6 mice (Day 4, R-MDMA 30 mg/kg IP) it was “significantly increased activity”; with C57BL/6 mice (setting [2]) it was “significant increases in activity”. Moreover, the activity vs vehicle result in the series on C57BL/6 mice (Day 4, R-MDMA 10 mg/kg IP) is “without a significant increase in activity”. Besides, in the series with C57BL/6 mice (Days 3, 4, 8, 13, R-MDMA 17 mg/kg IP on Day 3), the “locomotor activity vs vehicle” value is “significantly increased locomotor activity only on the day of administration”. The freezing significantly reduced entry in the series on C57BL/6 mice (Days 8 and 13, single R-MDMA 17 mg/kg IP on Day 3) is “but not on Days 8 and 13”.

Regarding `C[C@H](N)Cc1ccc2c(c1)OCO2` [S-MDA, S(+)-MDA], the “% inhibition of binding or activity” value on Adrenergic α2A stood at 63%.

Take `CNC(C)Cc1ccc2c(c1)OCO2` (racemic) [Racemic MDMA, 3,4-methylenedioxymethamphetamine]: the “% inhibition of binding or activity” value on Serotonin 5-HT2A (10 uM) is 59%. The “activity counts vs vehicle” value in the series with C57BL/6 mice (setting [3]) is “significant increase in activity”; with C57BL/6 mice (setting [4]), “significantly increased activity”; with C57BL/6 mice (setting [5]) it was “significant increases in activity”. The freezing vs vehicle entry in the series on C57BL/6 mice (setting [3]), in the series on C57BL/6 mice (setting [4]) and with C57BL/6 mice (setting [5]) was “significantly reduced freezing” each time. Moreover, the body temperature entry with rats is “significant increase in body temperature”. Further, in series [1], the “frontal cortical and striatal monoamine concentrations” value is “significant reductions in frontal cortical 5-HT and 5-HIAA and striatal DOPAC and HVA concentrations”. Besides, the “vital signs (systolic and diastolic blood pressure and heart rate)” value with PTSD participants (MDMA group, Phase 3 clinical trial (Mitchell et al., 2021)) is given as “transient increase in vital signs”. Also, in the series with PTSD participants (Phase 3 clinical trial (Mitchell et al., 2021)), the “efficacy for PTSD” value is given as “efficacy”. Besides, the “transient increase in body temperature to” value in the series with PTSD participants (two participants in the MDMA group) was 38.1 °C.
